Experimental data reported in ChEMBL document CHEMBL3886367, “Substituted pyridine compound” (2015).

target: T1, Cholesteryl ester transfer protein (Homo sapiens, UniProt P11597); experiment: CETP Inhibition Assay: A recombinant human CETP protein (manufactured by Roar Biomedical Inc.; 4.5 ng), the acceptor lipoprotein described in (2) above (32.5 ug) and 5,5'-dithio-bis-(2-nitrobenzoic acid) (7 mM, 15 ul) were taken in a 96 well plate and the total amount of the mixture was adjusted to 48.5 ul with the PBS solution. The test compound [DMSO solution (concentration: 0.15, 0.5, 1.5, 5, 15, 50, 150 and 500 uM; 1.5 ul] was added to each well and the mixture was incubated in a thermostatic bath at 37° C. for 60 minutes. The reconstituted HDL (50 ul) described in (1) above was added to each well and the mixture was reacted in a thermostatic bath at 37° C. for 60 minutes. The 96 well plate was moved onto ice and a precipitation reagent [a mixed solution of magnesium chloride (60 mM) and 0.1% dextran sulfate [1/1 (v/v)]; 15 ul] was added to each well, and then the mixture was allowed to stand on ice for 15 minutes.
T1 sequence (P11597 whole entry): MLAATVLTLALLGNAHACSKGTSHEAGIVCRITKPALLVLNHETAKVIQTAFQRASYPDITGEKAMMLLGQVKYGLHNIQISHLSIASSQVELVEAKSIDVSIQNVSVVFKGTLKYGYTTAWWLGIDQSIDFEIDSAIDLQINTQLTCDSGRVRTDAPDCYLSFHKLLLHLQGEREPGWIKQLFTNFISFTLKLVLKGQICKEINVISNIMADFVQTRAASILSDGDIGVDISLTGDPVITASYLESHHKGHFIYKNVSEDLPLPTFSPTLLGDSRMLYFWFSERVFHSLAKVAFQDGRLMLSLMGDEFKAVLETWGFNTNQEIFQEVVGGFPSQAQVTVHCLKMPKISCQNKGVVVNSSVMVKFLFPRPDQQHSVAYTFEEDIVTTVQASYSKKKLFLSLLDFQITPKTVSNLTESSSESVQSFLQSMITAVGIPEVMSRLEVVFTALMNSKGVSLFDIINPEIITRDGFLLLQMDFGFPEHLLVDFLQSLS

First: CC1(C)Cc2nc(C3CCN(c4ncc(OCCO)cn4)CC3)c([C@@H](F)c3ccc(C(F)(F)F)cc3)c(C3CCC(F)(F)CC3)c2[C@@H](O)C1
Second: CCOc1cnc(N2CCC(c3nc4c(c(C5CCC(F)(F)CC5)c3[C@@H](F)c3ccc(C(F)(F)F)cc3)[C@@H](O)CC(C)(C)C4)CC2)nc1 (single isomer, unassigned)
The IC50 of the first is 2.5-fold lower: 37 nM for the first, 92 nM for the second.

Going from `CC1(C)Cc2nc(C3CCN(c4ncc(N5CCS(=O)(=O)CC5)cn4)CC3)c([C@@H](F)c3ccc(C(F)(F)F)cc3)c(C3CCC(F)(F)CC3)c2[C@@H](O)C1` to `CC1(C)Cc2nc(C3CCN(c4ncc(Br)cn4)CC3)c([C@@H](F)c3ccc(C(F)(F)F)cc3)c(C3CCC(F)(F)CC3)c2[C@@H](O)C1` (single isomer, unassigned), the IC50 rises from 49 nM to 150 nM (3.1-fold). The first is the more potent here.
